Laboratory results from patent publication US20050148534A1, “Small molecule compositions and methods for increasing drug efficiency using compositions thereof” (priority 2003, published 2005).
Several values for one entry are separate records, joined by “and”; a condition that tells them apart may be missing. Identical values can stand only once.

Assays:
[1] = target: T1, Human thymidine kinase 1 (TK1) (Homo sapiens, UniProt P04183); experiment: Thymidine kinase coupled (kinetic) ATP depletion assay; type: biochemical; conditions: initial velocity relative to thymidine; 100 μM conjugate
T1 construct: His tag (from pET28b(+)) (N); made in house; host or cells: E. coli BL21-codon plus
T1 sequence (P04183 1-234): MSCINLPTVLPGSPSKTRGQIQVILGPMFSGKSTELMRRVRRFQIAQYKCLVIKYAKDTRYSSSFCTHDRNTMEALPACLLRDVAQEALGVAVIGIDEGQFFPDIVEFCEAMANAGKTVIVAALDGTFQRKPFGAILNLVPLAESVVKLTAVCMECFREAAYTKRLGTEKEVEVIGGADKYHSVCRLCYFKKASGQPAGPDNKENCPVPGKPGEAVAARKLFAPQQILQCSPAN
Description: Thymidine kinase, viral thymidine kinase, TK-1 deoxycytidine kinase, and deoxyguanosine kinase activities are determined by subjecting a first end of a linker used in synthesizing linker-substrate constructs to a first test. The first test may involve observing ADP formation, an obligatory co-product of phospho group transfer from ATP which is catalyzed by the kinase to the C5′ hydroxyl group or its equivalent in the nucleoside or nucleoside analog. Formation of ADP is followed by a coupled enzyme assay well known in the art. ADP, formed from kinase phosphorylation, is used by pyruvate kinase to generate pyruvate from phosphoenolpyruvate which in turn is converted to lactate by lactate dehydrogenase. The lactate results in the consumption of NADH which is followed spectrophotometrically. The rate of nucleoside phosphorylation is then directly related to the rate of decrease in the observed NADH signal.
TK1 was amplified using PCR with forward primer 5′-[…]-3′ and reverse primer 5′-[…]-3′. The PCR product was digested with Nde I and Hind III. An N-terminal His-tagged TK1 construct, TK1/pET28b(+), was generated by subcloning TK1 into the Nde I and Hind III sites of prokaryotic expression vector pET28b (+) (Novagen, San Diego, Calif.). TK1 was expressed from TK1/pET28b(+) using E. coli strain BL21-codon plus (Stratagene, San Diego, Calif.) and purified by Ni column chromatography.
A coupled (kinetic) ATP depletion assay was developed to measure thymidine kinase activity. The reaction contained 100 mM Tris HCl, pH 7.5, 20 mM MgCl2, 100 mM KCl, 0.4 mM PEP, 0.2 mM NADH, Pyruvate Kinase (0.7 units)/Lactate Dehydrogenase (1.0 unit) (Sigma #PO294), 2.5-10 μg Thymidine Kinase, 100 μM thymidine or thymidine-drug conjugate in a volume of 75 μl. ATP (5 mM in 25 μl H2O) was added to initiate the reaction and the velocity of ATP depletion was monitored at 340 nm continuously for 15 minutes.

[2] = tested on: tubulin; experiment: Fluorescence-based microtubule polymerization assay (MPA); type: biochemical; conditions: mean percentage of paclitaxel or vinblastine activity; 0.75-10 micromolar
Excerpt: Drug-linker constructs may further be screened using functional assays predictive of biological activity. […] Tubulin assembly or inhibition thereof may be monitored by fluorescence using the CytoDYNAMIX Screen™ 10 kit available from Cytoskeleton (1830 S. Acoma St., Denver, Colo.). […] Emission is monitored at 405 nm with excitation at 360 nm. […] Tubulin assembly or inhibition may also be monitored by light scattering which is approximated by the apparent absorption at 350 nm. For paclitaxel drug conjugates BSA is employed to prevent aggregation and glycerol, which is a tubulin polymerization enhancer, is omitted from the kit to increase the signal to noise ratio.
The assay kit (#BK011) was purchased from Cytoskeleton (Denver, Colo.). The assays were carried out according to the manufacturer's instructions, except that 1 mg/ml BSA (Sigma #A3059) was included in all assays. […] Parent drugs and conjugates were tested at 0.75, 1.5, 3 and 10 micromolar final concentration and results represent a comparison of conjugate and parent drug curves obtained from the linear range of the dose responses.

[3] = target: deoxycytidine kinase (dCK) (Homo sapiens, UniProt P27707); conditions: substrate activity; literature (Johansson et al.; Eriksson et al.; Wang et al.), source per Table 3; cited from earlier work
[4] = target: T2, deoxyguanosine kinase (dGK) (Homo sapiens, UniProt Q16854); conditions: substrate activity; literature (Johansson et al.); cited from earlier work
T2 sequence (Q16854 40-277): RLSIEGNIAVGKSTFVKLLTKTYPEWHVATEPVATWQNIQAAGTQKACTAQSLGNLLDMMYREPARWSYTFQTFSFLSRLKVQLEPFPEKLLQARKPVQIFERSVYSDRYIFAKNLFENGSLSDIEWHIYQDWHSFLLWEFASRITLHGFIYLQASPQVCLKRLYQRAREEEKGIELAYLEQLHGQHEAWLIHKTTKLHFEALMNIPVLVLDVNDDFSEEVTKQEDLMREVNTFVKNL

[5] = target: T3, TK2 (Homo sapiens, UniProt O00142); design: unit not given here; conditions: substrate activity; literature (Johansson et al.; Eriksson et al.; Wang et al.), source per Table 3; cited from earlier work
T3 sequence (O00142 34-265): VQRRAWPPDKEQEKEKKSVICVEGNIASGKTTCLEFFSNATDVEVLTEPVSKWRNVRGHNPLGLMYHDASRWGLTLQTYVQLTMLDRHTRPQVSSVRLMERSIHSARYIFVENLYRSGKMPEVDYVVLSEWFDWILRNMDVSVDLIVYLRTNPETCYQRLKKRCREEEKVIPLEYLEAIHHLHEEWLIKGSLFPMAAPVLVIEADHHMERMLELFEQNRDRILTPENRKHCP

[6] = target: T4, TK1 (Homo sapiens, UniProt P04183); conditions: substrate activity; literature (Johansson et al.; Eriksson et al., BBCR 1991; 176, 586), source per Table 3; cited from earlier work
T4 sequence (P04183 1-234): T1 sequence (P04183 1-234)

Sequence of deoxycytidine kinase (dCK) (P27707 whole entry, species assumed): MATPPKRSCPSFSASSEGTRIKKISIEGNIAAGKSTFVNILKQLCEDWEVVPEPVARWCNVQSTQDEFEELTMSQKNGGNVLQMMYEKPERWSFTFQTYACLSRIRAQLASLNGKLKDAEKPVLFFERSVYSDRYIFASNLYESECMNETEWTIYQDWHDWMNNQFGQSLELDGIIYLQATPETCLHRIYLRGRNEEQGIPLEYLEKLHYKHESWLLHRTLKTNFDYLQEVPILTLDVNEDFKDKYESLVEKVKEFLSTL

With `CC[C@]1(O)C[C@@H]2CN(CCc3c([nH]c4ccccc34)[C@@](C(=O)OC)(c3cc4c(cc3OC)N(C)[C@H]3[C@@](O)(C(=O)NCCOCCn5c(=O)c(C)cn([C@H]6C[C@H](O)[C@@H](CO)O6)c5=O)[C@H](O)[C@]5(CC)C=CCN6CC[C@]43[C@@H]65)C2)C1` [VBL-3Am-PEG(5)-N3-THY] the “Ave. TK1 Kinase Act.” value [1] was “A (A<20)” and the “Ave. MPA Act” value [2] was “C (C>100)”.
In the case of `Nc1nc2c(ncn2[C@H]2C[C@H](O)[C@@H](CO)O2)c(=O)[nH]1` [dGuo], the dCK [3] is listed as 300 and the dGK [4] is listed as 50.
For `O=c1[nH]cnc2c1ncn2C1OC(CO)C(O)C1O` (stereo not shown), the dGK [4] is listed as 290.
For `Nc1ncnc2c1ccn2[C@H]1C[C@H](O)[C@@H](CO)O1`, the dCK [3] is listed as 50 and the dGK [4] is listed as 100.
For `CC[C@]1(O)C[C@@H]2CN(CCc3c([nH]c4ccccc34)[C@@](C(=O)OC)(c3cc4c(cc3OC)N(C)[C@H]3[C@@](O)(C(=O)NCCCCCCn5c(=O)c(C)cn([C@H]6C[C@H](O)[C@@H](CO)O6)c5=O)[C@H](O)[C@]5(CC)C=CCN6CC[C@]43[C@@H]65)C2)C1` [VBL-3Am-ALK(6)-N3-THY], the “Ave. TK1 Kinase Act.” value [1] was “A (A<20)” and the “Ave. MPA Act” value [2] was “B (B=60-100)”.
In the case of `CC(=O)O[C@@]12CO[C@@H]1C[C@H](O)[C@@]1(C)C(=O)[C@H](OC(=O)NCCOCCn3c(=O)c(C)cn([C@@H]4C[C@H](O)[C@@H](CO)O4)c3=O)C3=C(C)[C@@H](OC(=O)[C@H](O)[C@@H](NC(=O)c4ccccc4)c4ccccc4)C[C@@](O)([C@@H](OC(=O)c4ccccc4)[C@H]21)C3(C)C` [PXL-10Ca-PEG(5)-N3-αTHY], the “Ave. TK1 Kinase Act.” value [1] was “A (A<20)” and the “Ave. MPA Act” value [2] was “B (B=60-100)”.
With `CC[C@]1(O)C[C@@H]2CN(CCc3c([nH]c4ccccc34)[C@@](C(=O)OC)(c3cc4c(cc3OC)N(C)[C@H]3[C@@](O)(C(=O)NCCCn5c(=O)c(C)cn([C@H]6C[C@H](O)[C@@H](CO)O6)c5=O)[C@H](O)[C@]5(CC)C=CCN6CC[C@]43[C@@H]65)C2)C1` [VBL-3Am-ALK(3)-N3-THY] the “Ave. TK1 Kinase Act.” value [1] was “A (A<20)” and the “Ave. MPA Act” value [2] was “C (C>100)”.
For `CC(=O)O[C@@]12CO[C@@H]1C[C@H](O)[C@@]1(C)C(=O)[C@H](OC(=O)NCCCCCCn3c(=O)c(C)cn([C@@H]4C[C@H](O)[C@@H](CO)O4)c3=O)C3=C(C)[C@@H](OC(=O)[C@H](O)[C@@H](NC(=O)c4ccccc4)c4ccccc4)C[C@@](O)([C@@H](OC(=O)c4ccccc4)[C@H]21)C3(C)C` [PXL-10Ca-ALK(6)-N3-αTHY], the “Ave. TK1 Kinase Act.” value [1] was “A (A<20)” and the “Ave. MPA Act” value [2] was “B (B=60-100)”.
For `Nc1nc2c(ncn2[C@@H]2O[C@H](CO)[C@@H](O)[C@@H]2O)c(=O)[nH]1` [AraG], the dCK [3] is given as 6 and the dGK [4] is given as 180.
For `CC[C@]1(O)C[C@@H]2CN(CCc3c([nH]c4ccccc34)[C@@](C(=O)OC)(c3cc4c(cc3OC)N(C)[C@H]3[C@@](O)(C(=O)NCCOCCOCCOCCn5c(=O)c(C)cn([C@H]6C[C@H](O)[C@@H](CO)O6)c5=O)[C@H](O)[C@]5(CC)C=CCN6CC[C@]43[C@@H]65)C2)C1` [VBL-3Am-PEG(11)-N3-THY], the “Ave. TK1 Kinase Act.” value [1] was “B (B=20-40)” and the “Ave. MPA Act” value [2] was “A (A<60)”.
For `Nc1ncnc2c1ncn2[C@@H]1O[C@H](CO)[C@@H](O)[C@@H]1O` [AraA], the dCK [3] is given as 50 and the dGK [4] is given as 15.
In the case of `CC(=O)O[C@@]12CO[C@@H]1C[C@H](O)[C@@]1(C)C(=O)[C@H](OC(=O)NCCOCCOCCOCCn3c(=O)c(C)cn([C@@H]4C[C@H](O)[C@@H](CO)O4)c3=O)C3=C(C)[C@@H](OC(=O)[C@H](O)[C@@H](NC(=O)c4ccccc4)c4ccccc4)C[C@@](O)([C@@H](OC(=O)c4ccccc4)[C@H]21)C3(C)C` [PXL-10Ca-PEG(11)-N3-αTHY], the “Ave. TK1 Kinase Act.” value [1] was “A (A<20)” and the “Ave. MPA Act” value [2] was “B (B=60-100)”.
In the case of `Nc1nc2c(ncn2C2CC(O)C(CO)C2)c(=O)[nH]1` (stereo not shown) [X = CH2, R3 = OH, R5 = H, B = Guanine], the dGK [4] is listed as 70.
In the case of `CC[C@]1(O)C[C@@H]2CN(CCc3c([nH]c4ccccc34)[C@@](C(=O)OC)(c3cc4c(cc3OC)N(C)[C@H]3[C@@](O)(C(=O)NCCCCn5c(=O)c(C)cn([C@H]6C[C@H](O)[C@@H](CO)O6)c5=O)[C@H](O)[C@]5(CC)C=CCN6CC[C@]43[C@@H]65)C2)C1` [VBL-3Am-ALK(4)-N3-THY], the “Ave. TK1 Kinase Act.” value [1] was “B (B=20-40)” and the “Ave. MPA Act” value [2] was “C (C>100)”.
For `O=c1[nH]cnc2c1ncn2[C@H]1C[C@H](O)[C@@H](CO)O1` [dino], the dCK [3] is given as 120 and the dGK [4] is given as 100.
In the case of `Nc1nc(Cl)nc2c1ncn2[C@H]1C[C@H](O)[C@@H](CO)O1` [X = O, R3 = OH, R5 = H, B = 2-Cl-Adenine], the dGK [4] is given as 180.
For `Nc1ncnc2c1ncn2C1CC(O)C(CO)O1` (stereo not shown) [dado], the dGK [4] is listed as 100.
With `COc1cccc2c1C(=O)c1c(O)c3c(c(O)c1C2=O)C[C@@](O)(C(=O)CO)C[C@@H]3O[C@H]1C[C@H](NCCCN2C(=O)CC(SCCC(=O)NCCOCCOCCOCCn3c(=O)c(C)cn([C@H]4C[C@H](O)[C@@H](CO)O4)c3=O)C2=O)[C@H](O)[C@H](C)O1.O=C(O)C(F)(F)F` (stereo partly shown) [DOX-3′Alk-[MALaPEG](22)-N3-THY] the “Ave. TK1 Kinase Act.” value [1] was “A (A<20)”.
In the case of `Cc1cn([C@H]2C[C@H](N=[N+]=[N-])[C@@H](CO)O2)c(=O)[nH]c1=O` [R4 = H, R3 = N3 (AZT), AZT], the dCK [3] is given as less than 1, the TK2 [5] is given as 5 and the TK1 [6] is given as 50 and 40.
